Data: ChEMBL document CHEMBL1287771, “Novel hybrids of 15-membered 8a- and 9a-azahomoerythromycin A ketolides and quinolones as potent antibacterials” (2010)
In brackets after ≈: the same amount, converted by molar mass.

Legend:
Type in all cases: functional
Streptococcus pneumoniae [1] = assay: Antibacterial activity against efflux-resistant Streptococcus pneumoniae B0326 by agar microdilution method
Streptococcus pyogenes [2] = assay: Antibacterial activity against efflux-resistant Streptococcus pyogenes B0545 by agar microdilution method
Staphylococcus aureus [3] = assay: Antibacterial activity against efflux-resistant Staphylococcus aureus B0331 by agar microdilution method
Streptococcus pneumoniae [4] = assay: Antibacterial activity against constitutive macrolide-lincosamide-streptogramin B-resistant Streptococcus pneumoniae B0627 by agar microdilution method
Haemophilus influenzae = assay: Antibacterial activity against Haemophilus influenzae B0529 by agar microdilution method
Streptococcus pyogenes [5] = assay: Antibacterial activity against constitutive macrolide-lincosamide-streptogramin B-resistant Streptococcus pyogenes B0544 by agar microdilution method
Streptococcus pyogenes [6] = assay: Antibacterial activity against erythromycin A-susceptible Streptococcus pyogenes B0542 by agar microdilution method
Staphylococcus aureus [7] = assay: Antibacterial activity against inducible macrolide-lincosamide-streptogramin B-resistant Staphylococcus aureus B0538 by agar microdilution method
Moraxella catarrhalis = assay: Antibacterial activity against Moraxella catarrhalis B0324 by agar microdilution method
Streptococcus pneumoniae [8] = assay: Antibacterial activity against erythromycin A-susceptible Streptococcus pneumoniae B0541 by agar microdilution method
Staphylococcus aureus [9] = assay: Antibacterial activity against constitutive macrolide-lincosamide-streptogramin B-resistant Staphylococcus aureus B0330 by agar microdilution method
Streptococcus pyogenes [10] = assay: Antibacterial activity against inducible macrolide-lincosamide-streptogramin B-resistant Streptococcus pyogenes B0543 by agar microdilution method
Staphylococcus aureus [11] = assay: Antibacterial activity against erythromycin A-susceptible Staphylococcus aureus B0329 by agar microdilution method

Compound | MIC (Streptococcus pneumoniae [1]) [µg/mL] | MIC (Streptococcus pyogenes [2]) [µg/mL] | MIC (Staphylococcus aureus [3]) [µg/mL] | MIC (Streptococcus pneumoniae [4]) [µg/mL] | MIC (Haemophilus influenzae) [µg/mL] | MIC (Streptococcus pyogenes [5]) [µg/mL] | MIC (Streptococcus pyogenes [6]) [µg/mL] | MIC (Staphylococcus aureus [7]) [µg/mL] | MIC (Moraxella catarrhalis) [µg/mL] | MIC (Streptococcus pneumoniae [8]) [µg/mL] | MIC (Staphylococcus aureus [9]) [µg/mL] | MIC (Streptococcus pyogenes [10]) [µg/mL] | MIC (Staphylococcus aureus [11]) [µg/mL]
CC[C@H]1OC(=O)[C@H](C)C(=O)[C@H](C)[C@@H](O[C@@H]2O[C@H](C)C[C@H](N(C)C)[C@H]2O)[C@](C)(OC/C=C/c2cnc3ccccc3c2)C[C@@H](C)C(=O)N[C@H](C)[C@H](O)[C@@]1(C)O | 8 (≈ 10.6 µM) | 4 (≈ 5.29 µM) | 16 (≈ 21.2 µM) | 64 (≈ 84.7 µM) | 32 (≈ 42.3 µM) | > 64 | 0.5 (≈ 0.661 µM) | 16 (≈ 21.2 µM) | 2 (≈ 2.65 µM) | 2 (≈ 2.65 µM) | > 64 | 64 (≈ 84.7 µM) | 8 (≈ 10.6 µM)
C=CCO[C@]1(C)C[C@@H](C)NC(=O)[C@H](C)[C@H](O)[C@@](C)(O)[C@@H](CC)OC(=O)[C@H](C)C(=O)[C@H](C)[C@H]1O[C@@H]1O[C@H](C)C[C@H](N(C)C)[C@H]1O | 16 (≈ 25.4 µM) | 8 (≈ 12.7 µM) | 8 (≈ 12.7 µM) | > 64 | 16 (≈ 25.4 µM) | > 64 | 0.25 (≈ 0.398 µM) | 2 (≈ 3.18 µM) | ≤ 0.125 | ≤ 0.125 | > 64 | 16 (≈ 25.4 µM) | 2 (≈ 3.18 µM)
CC[C@H]1OC(=O)[C@H](C)C(=O)[C@H](C)[C@@H](O[C@@H]2O[C@H](C)C[C@H](N(C)C)[C@H]2O)[C@](C)(OC/C=C/c2cccc3ccccc23)C[C@@H](C)NC(=O)[C@H](C)[C@H](O)[C@@]1(C)O | 2 (≈ 2.65 µM) | 2 (≈ 2.65 µM) | 4 (≈ 5.3 µM) | > 64 | 8 (≈ 10.6 µM) | > 64 | 0.25 (≈ 0.331 µM) | 2 (≈ 2.65 µM) | 0.25 (≈ 0.331 µM) | ≤ 0.125 | > 64 | 4 (≈ 5.3 µM) | 1 (≈ 1.32 µM)
CC[C@H]1OC(=O)[C@H](C)C(=O)[C@H](C)[C@@H](O[C@@H]2O[C@H](C)C[C@H](N(C)C)[C@H]2O)[C@](C)(OC/C=C/c2cnc3ccccc3c2)C[C@@H](C)NC(=O)[C@H](C)[C@H](O)[C@@]1(C)O | 0.5 (≈ 0.661 µM) | 1 (≈ 1.32 µM) | 0.5 (≈ 0.661 µM) | 16 (≈ 21.2 µM) | 4 (≈ 5.29 µM) | 8 (≈ 10.6 µM) | ≤ 0.125 | 0.5 (≈ 0.661 µM) | 0.25 (≈ 0.331 µM) | ≤ 0.125 | > 64 | 1 (≈ 1.32 µM) | 1 (≈ 1.32 µM)
CC[C@H]1OC(=O)[C@H](C)C(=O)[C@H](C)[C@@H](O[C@@H]2O[C@H](C)C[C@H](N(C)C)[C@H]2O)[C@](C)(OC/C=C/c2ccnc3ccccc23)C[C@@H](C)NC(=O)[C@H](C)[C@H](O)[C@@]1(C)O | 1 (≈ 1.32 µM) | 2 (≈ 2.65 µM) | 2 (≈ 2.65 µM) | > 64 | 4 (≈ 5.29 µM) | 16 (≈ 21.2 µM) | 0.25 (≈ 0.331 µM) | 1 (≈ 1.32 µM) | 0.5 (≈ 0.661 µM) | ≤ 0.125 | > 64 | 2 (≈ 2.65 µM) | 0.5 (≈ 0.661 µM)
CC[C@H]1OC(=O)[C@H](C)C(=O)[C@H](C)[C@@H](O[C@@H]2O[C@H](C)C[C@H](N(C)C)[C@H]2O)[C@](C)(OC/C=C/c2cnc3ccccc3c2)C[C@@H](C)C(=O)N[C@H](C)[C@H](O)[C@@]1(C)OC/C=C/c1cnc2ccccc2c1 | 0.5 (≈ 0.542 µM) | 0.5 (≈ 0.542 µM) | 0.5 (≈ 0.542 µM) | 4 (≈ 4.33 µM) | 4 (≈ 4.33 µM) | 8 (≈ 8.67 µM) | ≤ 0.125 | 0.25 (≈ 0.271 µM) | 0.125 (≈ 0.135 µM) | ≤ 0.125 | > 64 | 0.5 (≈ 0.542 µM) | ≤ 0.125
CC[C@H]1OC(=O)[C@H](C)C(=O)[C@H](C)[C@@H](O[C@@H]2O[C@H](C)C[C@H](N(C)C)[C@H]2O)[C@](C)(OCC(O)CNCCc2ccccc2)C[C@@H](C)NC(=O)[C@H](C)[C@H](O)[C@@]1(C)O (some centres not stated) | 16 (≈ 20.9 µM) | 1 (≈ 1.31 µM) | 8 (≈ 10.4 µM) | 8 (≈ 10.4 µM) | 16 (≈ 20.9 µM) | 16 (≈ 20.9 µM) | 0.5 (≈ 0.653 µM) | 16 (≈ 20.9 µM) | 0.5 (≈ 0.653 µM) | 0.25 (≈ 0.326 µM) | > 64 | 1 (≈ 1.31 µM) | 4 (≈ 5.22 µM)
CC[C@H]1OC(=O)[C@H](C)C(=O)[C@H](C)[C@@H](O[C@@H]2O[C@H](C)C[C@H](N(C)C)[C@H]2O)[C@](C)(OCC(O)CN(C)CCc2ccc([N+](=O)[O-])cc2)C[C@@H](C)NC(=O)[C@H](C)[C@H](O)[C@@]1(C)O (some centres not stated) | 0.5 (≈ 0.606 µM) | 0.25 (≈ 0.303 µM) | 1 (≈ 1.21 µM) | ≤ 0.125 | 1 (≈ 1.21 µM) | 1 (≈ 1.21 µM) | ≤ 0.125 | 0.5 (≈ 0.606 µM) | ≤ 0.125 | ≤ 0.125 | > 64 | 0.25 (≈ 0.303 µM) | ≤ 0.125
CC[C@H]1OC(=O)[C@H](C)C(=O)[C@H](C)[C@@H](O[C@@H]2O[C@H](C)C[C@H](N(C)C)[C@H]2O)[C@](C)(OCC(O)CN[C@H](C)Cc2ccccc2)C[C@@H](C)NC(=O)[C@H](C)[C@H](O)[C@@]1(C)O (some centres not stated) | 1 (≈ 1.28 µM) | 0.5 (≈ 0.641 µM) | 2 (≈ 2.56 µM) | 2 (≈ 2.56 µM) | 1 (≈ 1.28 µM) | 4 (≈ 5.13 µM) | ≤ 0.125 | 2 (≈ 2.56 µM) | 0.25 (≈ 0.321 µM) | ≤ 0.125 | > 64 | 0.5 (≈ 0.641 µM) | 0.5 (≈ 0.641 µM)
CC[C@H]1OC(=O)[C@H](C)C(=O)[C@H](C)[C@@H](O[C@@H]2O[C@H](C)C[C@H](N(C)C)[C@H]2O)[C@](C)(OCC(O)CNCCc2cccnc2)C[C@@H](C)NC(=O)[C@H](C)[C@H](O)[C@@]1(C)O (some centres not stated) | 8 (≈ 10.4 µM) | 2 (≈ 2.61 µM) | 4 (≈ 5.22 µM) | 2 (≈ 2.61 µM) | 8 (≈ 10.4 µM) | 32 (≈ 41.7 µM) | 0.25 (≈ 0.326 µM) | 8 (≈ 10.4 µM) | 1 (≈ 1.3 µM) | 0.5 (≈ 0.652 µM) | > 64 | 4 (≈ 5.22 µM) | 4 (≈ 5.22 µM)
CC[C@H]1OC(=O)[C@H](C)C(=O)[C@H](C)[C@@H](O[C@@H]2O[C@H](C)C[C@H](N(C)C)[C@H]2O)[C@](C)(OCC(O)CNc2ccc3ncccc3c2)C[C@@H](C)NC(=O)[C@H](C)[C@H](O)[C@@]1(C)O (some centres not stated) | 2 (≈ 2.53 µM) | 8 (≈ 10.1 µM) | 1 (≈ 1.27 µM) | 8 (≈ 10.1 µM) | ≤ 0.125 | 16 (≈ 20.3 µM) | ≤ 0.125 | 2 (≈ 2.53 µM) | 0.5 (≈ 0.634 µM) | ≤ 0.125 | 64 (≈ 81.1 µM) | 4 (≈ 5.07 µM) | 2 (≈ 2.53 µM)
CC[C@H]1OC(=O)[C@H](C)C(=O)[C@H](C)[C@@H](O[C@@H]2O[C@H](C)C[C@H](N(C)C)[C@H]2O)[C@](C)(OCC(O)CNC2CN(S(=O)(=O)c3ccc4ccncc4c3)CCN2)C[C@@H](C)NC(=O)[C@H](C)[C@H](O)[C@@]1(C)O (some centres not stated) | 64 (≈ 68.3 µM) | 16 (≈ 17.1 µM) | 16 (≈ 17.1 µM) | 32 (≈ 34.1 µM) | > 64 | > 64 | ≤ 0.125 | 16 (≈ 17.1 µM) | 8 (≈ 8.54 µM) | ≤ 0.125 | > 64 | 16 (≈ 17.1 µM) | 8 (≈ 8.54 µM)
O=C(O)c1cn(C2CC2)c2cc(N3CCNCC3)c(F)cc2c1=O [CIPROFLOXACIN] | 0.25 (≈ 0.754 µM) | ≤ 0.125 | ≤ 0.125 | 0.25 (≈ 0.754 µM) | ≤ 0.125 | 0.5 (≈ 1.51 µM) | 2 (≈ 6.04 µM) |  | 0.125 (≈ 0.377 µM) | ≤ 0.125 | ≤ 0.125 | 0.25 (≈ 0.754 µM) | 
